Laboratory results taken from patent publication US10800755B2, “2,6-disubstituted pyridine derivative” (Sumitomo Dainippon Pharma Co., Ltd., priority 2017, dated 2020).
Read-outs that look alike come from different tables or passages of the source.

Assays:
human 5-HT1A receptor [1] = target: T1, human 5-HT1A receptor (Homo sapiens (Human), UniProt P08908); assay: Test 1: agonistic activity for human 5-HT1A receptor (aequorin/Gα16 luminescence in CHO-K1 cell); format: cell-based; details: for 5-HT1A agonistic activity Emax / Emax: 100% = 10 μmol/L endogenous ligand; for EC50: CHO-K1 cell, aequorin luminescence; for Emax: CHO-K1
In short: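 Aequorin and Gα16 transiently co-expressed with each receptor in CHO-K1 cells, cultured 24 h at 37 °C. Compounds added from DMSO solution; agonism read as change in luminescence.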

human D4 receptor [2] = target: T2, human D4 receptor (Homo sapiens (Human), UniProt P21917); assay: Test 1: agonistic activity for human D4 receptor (aequorin/Gα16 luminescence in CHO-K1 cell); format: cell-based; details: for D4 agonistic activity Emax / Emax: 100% = 10 μmol/L endogenous ligand; for EC50: CHO-K1 cell, aequorin luminescence; for Emax: CHO-K1
human 5-HT1A receptor [3] = target: T1, human 5-HT1A receptor; assay: Test 2: binding activity to human 5-HT1A receptor ([3H] 8-OH-DPAT, CHO cell membrane); details: [3H] 8-OH-DPAT; read-out: 5-HT1A binding affinity (Ki value)
human D4 receptor [4] = target: T2, human D4 receptor; assay: Test 2: binding activity to human D4 receptor ([3H] dopamine, CHO cell membrane)
human D2 receptor = human D2 receptor (Homo sapiens (Human), UniProt P14416); assay: Test 2: binding activity to human D2 receptor ([3H] spiperone, CHO cell membrane); details: [3H] spiperone; read-out: D2 binding affinity (Ki value)
[5] = Test 3-1: metabolic stability test of human liver microsome (0.1 mg/mL); format: in vitro ADME; details: test compound 0.1 μmol/L, 37° C., 30 minutes
Experimental: Test 3-1: Metabolic Stability Test of Human Liver Microsome
(§1) The stability of the present compounds for human liver microsome metabolism was evaluated as mentioned below. The used human liver microsome was obtained from Xenontech. Human liver microsome, NADPH, and each test compound were mixed in 25 mmol/L phosphate buffer solution (pH 7.4) to adjust each concentration as shown below, and the mixture was incubated at 37° C. for 30 minutes. • human liver microsome: 0.1 mg/mL • NAPDH: 3.2 mmol/L • test compound: 0.1 μmol/L
(§2) The residual ratio of the test compound in each sample after the incubation for 30 minutes was measured with a LC-MS, and the metabolic stability of human liver microsome was calculated about each test compound with the following formula. Metabolic stability of human liver microsome (mL/min/mg protein)=−LN (residual ratio)/“reaction time”/“concentration of human liver microsome”

hERG channel = hERG channel (Homo sapiens (Human), UniProt Q12809); assay: Test 5-1: activity for inhibiting hERG channel (whole-cell patch clamp, hERG-CHO cell, Qpatch); format: cell-based; details: read-out: hERG inhibition IC50
Experimental: Test 5-1: Evaluation of Activity for Inhibiting hERG Channel
The activity of the present compound for inhibiting hERG channel was measured by whole-cell patch clamp method with auto patch clamp system, using CHO cell wherein hERG channel involved in human rapidly activating delayed rectifier potassium current (IKr) was forcibly expressed.
hERG-CHO cell purchased from ChanTest was incubated at 37° C. in a CO2 incubator, and the cell was exfoliated from the flask with trypsin to prepare a cell suspension, shortly before the hERG current measurement.
Extracellular fluid: 2 mmol/L CaCl2, 1 mmol/L MgCl2, 10 mmol/L HEPES, 4 mmol/L KCl, 145 mmol/L NaCl, 10 mmol/L glucose
Intracellular fluid: 5.4 mmol/L CaCl2, 1.8 mmol/L MgCl2, 10 mmol/L HEPES, 31 mmol/L KOH, 10 mmol/L EGTA, 120 mmol/L KCl, 4 mmol/L Na2-ATP
Test compound solution: The test compound was dissolved in DMSO by adjusting the concentration to 2 mmol/L or 20 mmol/L to prepare each test compound solution. […] (Measurement of Current Value and Data Analysis)
The cell suspension, the extracellular fluid, the intracellular fluid, and the measurement plate were set in an auto patch clamp system, and the hERG current was measured by whole-cell patch clamp method. […] Each pulse interval was 15 seconds. The data analysis was carried out with Qpatch Assay Software (Biolin Scientific). The test was carried out applying increscently 4 concentrations of each test compound, and the average of the peak tail currents that were obtained by the last 3 stimulations in each applied concentration was determined to be the evaluated data. By using the current inhibition rate for the pre-applied current at each concentration of each test compound, IC50 value was calculated by Hill equation with the software.

[6] = Test 3-2: metabolic stability test of human liver microsome (0.5 or 1.0 mg/mL); format: in vitro ADME; details: test compound 0.1 μmol/L, 37° C., 30 minutes
Experimental: Test 3-2: Metabolic Stability Test of Human Liver Microsome
as §1, with “In order to evaluate the metabolic stability of human liver microsomes more precisely, the stability” for “The stability”, “evaluated with a suitable concentration of human liver microsome,” for “evaluated”, “microsome: 0.5 or 1.0” for “microsome: 0.1”
as §2

[7] = Test 4-1: predictive test of human half-life (monkey distribution volume, serum unbound fraction, Test 3-1 stability); details: in vivo, predicted using Test 3-1 metabolic stability
Experimental: Test 4-1: Predictive Test of Human Half-Life
(§3) 0.01 mol/L of the present compound in aqueous hydrochloric acid solution was parenterally administered to cynomolgus monkey. 5 minutes, 15 minutes, 30 minutes, 1 hour, 2 hours, 4 hours, 6 hours, and 24 hours after the administration, the blood was collected. The plasma was obtained from the collected blood, the drug concentration in the plasma was measured with a LC-MS, and the monkey distribution volume was calculated from the transition of the concentrations. The unbound fraction rate of the present compound in serum of human and monkey was measured by equilibrium dialysis method.
Using the monkey distribution volume, the unbound fraction rate in serum of human and monkey, and the result of the metabolic stability of human liver microsome which was obtained in Test 3-1, the half-life in human was calculated according to the formula below. “Human distribution volume”=“monkey distribution volume”×“unbound fraction rate in serum of human”/“unbound fraction rate in serum of monkey” “Human hepatic clearance”=(“human hepatic blood flow”×“unbound fraction rate in serum of human”×56.7×“metabolic stability of human liver microsome”)/(“human hepatic blood flow”+“unbound fraction rate in serum of human”×56.7×“metabolic stability of human liver microsome”) “Half-life in human”=0.693×“human distribution volume”/“human hepatic clearance”

[8] = Test 4-2: predictive test of human half-life (monkey distribution volume, serum unbound fraction, Test 3-2 stability); details: in vivo, predicted using Test 3-2 metabolic stability
Experimental: Test 4-2: Predictive Test of Human Half-Life
as §3
Using the monkey distribution volume, the unbound fraction rate in serum of human and monkey, and the result of the metabolic stability of human liver microsome which was obtained in Test 3-2, the half-life in human was calculated according to the formula below. “Human distribution volume”=“monkey distribution volume”×“unbound fraction rate in serum of human”/“unbound fraction rate in serum of monkey” “Human hepatic clearance”=(“human hepatic blood flow”×“unbound fraction rate in serum of human”×56.7×“metabolic stability of human liver microsome”)/(“human hepatic blood flow”+“unbound fraction rate in serum of human”×56.7×“metabolic stability of human liver microsome”) “Half-life in human”=0.693×“human distribution volume”/“human hepatic clearance”

SD male rat = assay: Test 6: contextual fear conditioning test; format: in vivo; details: 10 mg/kg administration
Experimental: Test 6: Contextual Fear Conditioning Test
The antianxiety of the present compounds was evaluated in a manner mentioned below.
The evaluation of an 8-week-old SD male rat with a fear conditioning test system (O'HARA & CO., LTD.) was carried out in 2-day test schedule. On the 1st day of the test, by giving 0.5 mA of electric shock to the rat as unconditioned stimulus 5 times for 6 minutes, the rat was made to learn the relationship the context (the illuminance in the cage: 200 lx) which was given as conditioned stimulus, and phobic stimulus. On the 2nd day, the present compound was subcutaneously administered with saline solution to the rat, or orally administered with methylcellulose suspension to the rat. 0.5 or 1 hour after the administration, the rat was made to softly enter the cage under the condition in which the unconditioned stimulus was not given in the context. The time of cataleptic freezing reaction that the rat took for 5-minute freely-moving period and its ratio were measured. The ratios of cataleptic freezing reaction between the solvent-administration group and the present compound-administration group were compared to be statistically processed.

Wistar male rat = assay: Test 9: microdialysis test (release amount of intracerebral monoamine, orbitofrontal cortex); format: in vivo; details: combination administration with sertraline or single administration
Experimental: Test 9: Microdialysis Test
The effect of the present compound for the release amount of intracerebral monoamine was evaluated in a manner mentioned below.
8-Week-old Wistar male rat was fixed on a brain stereotaxic apparatus under anesthesia. The scalp was incised, the subcutaneous tissue was removed, the position of the bregma was measured, and the installation position of a guide cannula was calculated (the position of the orbitofrontal cortex which defined according to the brain stereotaxic coordinates of Paxinos & Watson (2.0 mm right, 4.2 mm anterior from bregma)). The skull was drilled with a dental drill at the installation position of the guide cannula, and an anchor screw was set about 1 cm posterior to the hole. The guide cannula was set and fixed with a dental cement, and then the scalp was sutured. The animal was released from the brain stereotaxic apparatus, and was moved back to the breeding cage. In the event of the test, the rat was put in an acrylic observable cage, and a dialysis probe was inserted along the guide cannula to connect to a free-moving tube. With an infusion pump, Ringer solution was perfused at 2 μL/min, and the dialysis solution was recovered at 20-minute intervals. […] The recovered dialysis solutions were analyzed with a HPLC-ECD system to determine the contents of norepinephrine (NE), dopamine (DA), and serotonin (5-HT).

[9] = [3H] dopamine, read-out: D4 binding affinity (Ki value)

Chain of human D2 receptor (P14416 whole entry): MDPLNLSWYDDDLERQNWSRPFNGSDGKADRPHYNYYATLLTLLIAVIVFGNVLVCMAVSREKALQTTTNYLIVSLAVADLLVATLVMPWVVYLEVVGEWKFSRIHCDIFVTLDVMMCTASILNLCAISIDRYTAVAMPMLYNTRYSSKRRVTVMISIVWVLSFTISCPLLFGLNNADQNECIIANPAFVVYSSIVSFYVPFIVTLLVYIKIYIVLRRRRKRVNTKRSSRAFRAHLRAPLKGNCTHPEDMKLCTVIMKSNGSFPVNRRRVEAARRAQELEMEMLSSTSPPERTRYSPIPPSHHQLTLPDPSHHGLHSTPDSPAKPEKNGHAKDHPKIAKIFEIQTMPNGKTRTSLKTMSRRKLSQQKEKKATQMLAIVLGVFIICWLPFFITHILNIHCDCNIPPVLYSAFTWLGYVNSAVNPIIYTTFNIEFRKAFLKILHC
T1 sequence (P08908 whole entry): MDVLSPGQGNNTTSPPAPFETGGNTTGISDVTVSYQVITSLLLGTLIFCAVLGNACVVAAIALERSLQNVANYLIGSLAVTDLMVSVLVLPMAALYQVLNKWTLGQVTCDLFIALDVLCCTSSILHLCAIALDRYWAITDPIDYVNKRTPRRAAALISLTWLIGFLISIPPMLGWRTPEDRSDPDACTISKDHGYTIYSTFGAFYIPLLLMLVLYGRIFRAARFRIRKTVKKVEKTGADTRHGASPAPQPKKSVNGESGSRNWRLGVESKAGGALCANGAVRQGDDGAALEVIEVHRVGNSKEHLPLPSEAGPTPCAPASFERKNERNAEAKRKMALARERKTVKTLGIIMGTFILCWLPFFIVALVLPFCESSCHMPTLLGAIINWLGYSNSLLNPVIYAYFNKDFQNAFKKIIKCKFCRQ
T2 sequence (P21917 whole entry): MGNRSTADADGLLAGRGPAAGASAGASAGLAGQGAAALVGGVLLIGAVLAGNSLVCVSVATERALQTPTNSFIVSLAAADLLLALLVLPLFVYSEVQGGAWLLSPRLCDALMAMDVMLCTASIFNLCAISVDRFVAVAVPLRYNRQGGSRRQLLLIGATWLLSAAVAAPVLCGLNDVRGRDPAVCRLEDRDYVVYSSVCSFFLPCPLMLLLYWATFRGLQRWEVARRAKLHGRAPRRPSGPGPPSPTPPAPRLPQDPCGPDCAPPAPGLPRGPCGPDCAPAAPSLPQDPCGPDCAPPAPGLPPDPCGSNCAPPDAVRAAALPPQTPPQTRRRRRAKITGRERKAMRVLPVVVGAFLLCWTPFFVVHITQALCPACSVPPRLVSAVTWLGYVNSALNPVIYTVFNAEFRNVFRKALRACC
Chain of hERG channel (Q12809 whole entry): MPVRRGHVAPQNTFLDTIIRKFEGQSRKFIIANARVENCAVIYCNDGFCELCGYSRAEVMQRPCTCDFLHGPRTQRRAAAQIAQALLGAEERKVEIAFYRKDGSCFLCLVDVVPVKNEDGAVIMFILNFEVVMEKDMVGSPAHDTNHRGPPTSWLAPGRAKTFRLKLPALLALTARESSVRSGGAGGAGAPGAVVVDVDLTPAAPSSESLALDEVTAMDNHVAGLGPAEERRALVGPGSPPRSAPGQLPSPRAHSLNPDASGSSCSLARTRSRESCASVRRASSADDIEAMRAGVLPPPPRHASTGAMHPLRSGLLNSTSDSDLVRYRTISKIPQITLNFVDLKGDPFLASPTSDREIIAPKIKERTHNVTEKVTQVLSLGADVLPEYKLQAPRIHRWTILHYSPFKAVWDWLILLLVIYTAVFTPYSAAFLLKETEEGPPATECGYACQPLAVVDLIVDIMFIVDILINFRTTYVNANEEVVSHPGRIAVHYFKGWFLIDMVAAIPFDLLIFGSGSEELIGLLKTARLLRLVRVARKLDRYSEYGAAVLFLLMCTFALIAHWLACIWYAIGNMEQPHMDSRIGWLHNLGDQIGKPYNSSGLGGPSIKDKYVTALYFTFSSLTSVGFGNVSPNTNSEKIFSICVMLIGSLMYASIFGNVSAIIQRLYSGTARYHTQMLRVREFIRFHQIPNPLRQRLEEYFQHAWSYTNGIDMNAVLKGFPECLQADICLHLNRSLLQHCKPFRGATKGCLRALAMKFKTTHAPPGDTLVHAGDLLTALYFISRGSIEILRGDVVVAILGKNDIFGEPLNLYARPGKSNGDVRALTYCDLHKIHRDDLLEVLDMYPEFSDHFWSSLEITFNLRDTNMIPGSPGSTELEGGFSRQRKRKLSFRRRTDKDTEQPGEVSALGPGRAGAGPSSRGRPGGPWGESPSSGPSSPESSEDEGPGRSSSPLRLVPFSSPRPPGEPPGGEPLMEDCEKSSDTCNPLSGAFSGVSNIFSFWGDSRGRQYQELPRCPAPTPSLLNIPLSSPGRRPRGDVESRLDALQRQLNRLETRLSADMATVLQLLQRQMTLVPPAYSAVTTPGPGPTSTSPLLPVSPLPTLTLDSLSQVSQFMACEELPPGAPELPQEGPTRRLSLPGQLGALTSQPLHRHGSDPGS

| Structure (SMILES) | 5-HT1A agonistic activity Emax (human 5-HT1A receptor [1]) [%] | EC50 (human 5-HT1A receptor [1]) [nM] | D4 agonistic activity Emax (human D4 receptor [2]) [%] | EC50 (human D4 receptor [2]) [nM] | Ki (human 5-HT1A receptor [3]) [nM] | Ki (human D4 receptor [4]; [9]) [nM] | Ki (human D2 receptor) [nM] | Metabolic stability of human liver microsome [5] [mL/min/mg protein] | IC50 (hERG channel) [nM] | Emax (human 5-HT1A receptor [1]) [%] | Emax (human D4 receptor [2]) [%] | Metabolic stability of human liver microsome [6] [mL/min/mg protein] | half-life [7] [h] | half-life [8] [h] | decrease of the cataleptic freezing reaction for the solvent-administration group (SD male rat) [%] | Ki (human D4 receptor [4]) [nM] | serotonin content (Wistar male rat) |
| --- | --- | --- | --- | --- | --- | --- | --- | --- | --- | --- | --- | --- | --- | --- | --- | --- | --- |
| Cc1cccc(C2CCN(CCNC(=O)C3CCC(F)(F)CC3)CC2)n1 [Example 4] | 90 | < 10 | 71 | 25.1 | 0.4 | 26 | > 10000 | <0.01 | 4000 | – | – | – | – | – | – | – | – |
| Cc1cccc(C2CCN(CCNC(=O)C3CCOCC3)CC2)n1 [Example 8, N-{2-[4-(6-Methylpyridin-2-yl)piperidin-1-yl]ethyl}-tetrahydro-2H-pyran-4-carboxamide] | – | < 10 | – | 37.1 | 1.4 | 111 | > 10000 | 0.017 | 44300 | 71 | 65 | 0.023 | 9.2 | 59 | 41.0 | – | – |
| O=C(NCCN1CCC(c2cccc(C(F)(F)F)n2)CC1)C1CCOCC1 [Example 11, N-(2-{4-[6-(Trifluoromethyl)pyridin-2-yl]piperidin-1-yl}ethyl)-tetrahydro-2H-pyran-4-carboxamide] | – | 82 | – | 30.8 | 2.1 | – | > 10000 | – | – | 92 | 56 | 0.0075 | 13 | 17 | – | 44 | did not decrease the serotonin content |
| COCC1(C(=O)NCCN2CCC(c3cccc(C(F)(F)F)n3)CC2)CC1 [Example 7] | 106 | < 10 | 58 | < 10 | 13 | 43 | > 10000 | 0.017 | 5600 | – | – | – | – | – | – | – | – |
| Cc1cccc(C2CCN(CCNC(=O)C3CC4CCC3O4)CC2)n1 (stereo not shown) [Example 3] | – | 38 | 76 | 33.5 | 7.1 | 198 | > 10000 | <0.01 | 32100 | – | – | – | – | – | – | – | – |
| CC(C)(C)C(=O)NCCN1CCC(c2cccc(C(F)(F)F)n2)CC1 [Example 9, 2,2-dimethyl-N-(2-{4-[6-(trifluoromethyl)pyridin-2-yl]piperidin-1-yl}ethyl)propanamide] | – | < 10 | – | < 10 | 1.1 | 8 | 2440 | 0.025 | 5900 | 84 | 53 | 0.016 | – | 10 | – | – | – |
| O=C(NCCN1CCC(c2cccc(C(F)(F)F)n2)CC1)C1CCCOC1 (stereo not shown) [Example 2] | 86 | 323 | 61 | 58.9 | 11 | 109 | > 10000 | 0.069 | > 10000 | – | – | – | – | – | – | – | – |
